Reference: patent publication US10266545B2, “Coumarin derivative as antiviral agent, pharmaceutical composition thereof, its preparation and use” (I-NOVA MEDICINSKA ISTRAZIVANJA D.O.O., priority 2016, dated 2019)

Assays:
[1] = test system: replication of HIV-1 in the infected MT-4 cells (endogenous RT); assay: Endogenous RT activity in culture fluid of HIV-1 infected MT-4 cells (HS-Lenti RT activity kit); assay type: cell-based, HIV-1 subtype B; details: for inhibition at 0.1 µM: 0.0001 mM; for inhibition at 5 µM: 0.005 mM; for inhibition at 10 µM: 0.01 mM
Protocol: Furthermore, antiviral activity of compound 1 was studied on reverse transcriptase (RT) activity to elucidate potential mechanism of its antiviral action. This was done by using MT-4 cell line which […] with HIV-1. Source of HIV-1 culture fluid was chronically infected and producing HIV-1 subtype B cell line H9/HTLV III B.
Reverse transcriptase (RT) activity was determined: • (a) in the culture fluid of infected HIV-1 MT-4 cells at 72 hours after their infection (viral control); • (b) in the culture fluid of non-infected with HIV-1 cells at 72 hours and culturing without the addition of any substance (cell control); and • (c) in the culture fluid infected with HIV-1 MT-4 cells at 72 hours after infecting them, in which the desired concentration of the test compound 1 or the control compound 2 to the growth medium was added.
RT activity was determined according to the instructions of the producer. Separately was reported RT activity of standard recombinant reverse transcriptase (rRT), available in every kit. It was prepared 12-fold dilutions of the standard rRT. The manufacturer provides data on the amount of rRT in pg/well and pg/ml for each 12-fold dilution. The method used represents colorimetric method for non-radioactive determination of RT activity. It includes two stages: • (1) the synthesis of reverse transcript at the 3- or 24-hours incubation at 33° C. (which was determined experimentally); and • (2) quantitative determination of the resulting product.
In the synthesis of DNA using bromine deoxyuridine triphosphate (Brd UTP), which enter into the composition of the reaction mixture. It is included in the structure of the matrix/primer making up the DNA chain. Determination of incorporated Brd UTP was done by tracer-antibody Brd UTP, conjugated to the enzyme alkaline phosphatase. Followed colorimetrically determining the absorbance at A405 nm, which is proportional to the RT activity in the sample. According to the manufacturer, RT activity was considered positive when A405 values for the sample exceeded at least 2 times the values of A405 for negative control. Otherwise the sample was reported as such lacking RT activity, i.e. negative. The test was done by comparing the RT activity in the virus controls (100%) reported with viral RT activity in the wells treated with the test substance in the different concentrations in strict absence of RT activity in control cells. Percent inhibition of replication using the RT test was expressed as the difference between 100% (positive viral control without inhibitor) and % reported RT activity in the wells treated with the inhibitor (compounds 1 or 2) at various concentrations.
The measurement of RT activity is a widespread method for the quantitative determination of retroviruses replication. In the experimental set-up, primarily endogenous activity in supernatants was measured, i.e. in the culture fluid of virus infected cells and treated/untreated with inhibitor at 72 hours after cultivation.
For the control, commonly used substance with proven antiviral activity was employed; in our case, we used Kivexa, which contains 600 mg Abacavir and 300 mg of Lamivudine, which is applied in clinical practice as nucleoside inhibitor of RT. In the presence of RT inhibition in the test, it is concluded that not only the replication of the virus is inhibited, but also probably the target of the inhibitory effect is RT itself. To confirm this conclusion, it is necessary that percentage (%) of inhibition of the RT coincides with the % inhibition in the microtiter MTT assay. […] Reaction mixture supplemented with inhibitor was prepared at desired concentration for the assay, and then, to the mixture, recombinant RT was added with a known activity and concentration. After incubation, we determined whether the activity of the enzyme shall be amended (inhibited) by action of the compounds 1 or 2. […]

MT-4 cells = assay: Cytotoxicity (MNC, CC50) by MTT assay on uninfected MT-4 cell line; assay type: cell-based; details: for MNC (maximal non-toxic concentration): MT-4 cells, MTT
Protocol: (§1) Cell viability was estimated by a modification of the 3-(4,5-dimethylthiazol-2-yl)-2,5-diphenyltetrazolium bromide (MTT) assay, which is described in the literature reference 9: • 9) T. Mosmann: Rapid colorimetric assay for cellular growth and survival: Application to proliferation and cytotoxicity assays, J. Immunol.
(§2) Both MNC and CC50 values were evaluated simultaneously by morphological and by cell survival criteria. We used MTT-test, determining the living and early apoptotic cells.
(§3) The cells in the suspension culture are growing in clusters. […] Cells were passaged 1:3-1:5 at a density around 6-8·10^4 cells/ml, while the passage was re-suspended repeatedly.
(§4) Cell viability was estimated by a modification of the 3-(4,5-dimethylthiazol-2-yl)-2,5-diphenyltetrazolium bromide (MTT) assay, which is described in the reference 9.
(§5) Since the cell culture we have worked with were suspension, a solution of poly-L-lysine (PLL; Mw=90,000; Sigma-Aldrich, USA) was used for cell attachment on the bottom of a 96-well plate. The plates were treated with 100 μl of PLL at a concentration of 50 μg/ml in phosphate buffered saline (PBS; Sigma-Aldrich, USA), pH=7.4, then incubated for 1 h at room temperature. Followed aspiration of PLL solution and washing the plate twice with sterile PBS. Cells were then seeded at a concentration of 7-8·10^4 cells/100 μl for all experiments. Since the final volume of the culture medium in each well was 200 μl, additional 100 μl of 10% FBS (containing no cells) was added. For the purpose of the experiment, there was no need of forming a dense cell monolayer and after 24 h, when the adherent cells were stick to the plastic, the supernatant was decanted and adding 50 μl of previously prepared dilution of test compound. The well was completed with culture medium (150 μl) to a final volume of 200 μl. The plate was incubated at 37° C. and 5% content of CO2 for 3 days (72 h). Cells grown in medium without the test compound served as a control.
(§6) After 72 h incubation, the medium was replaced with MTT (Sigma Aldrich, USA) and dissolved at a final concentration of 5 mg/ml in serum-free medium, for further 3 h incubation. Then, the MTT-formazan product was solubilised in ethanol/dimethyl sulfoxide (DMSO; Sigma-Aldrich, USA) (1:1, V/V), and the optical density was measured at a test wavelength of 540 nm. Each experiment was performed in triplicate.
(§7) Cell viability was reported as the percentage (%) of viable cells in the wells treated with different concentrations of the test substance compared to the control cells untreated with the substances.

[2] = as above; assay type: cell-based; details: human; MT-4 cells, 72 h, MTT; read-out: CC50 (cytotoxic concentration for 50% cells)
Protocol: as §1, §2, §3, §4, §5, §6, §7

[3] = Human immunodeficiency virus 1, MT4, endogenous RT in culture liquid
[4] = 72 h, highest concentration of 100 mM, could be due to DMSO
[5] = 72 h after treatment, concentration range from 10 mM to 0.01 mM

Structure (SMILES)	inhibition at 0.1 µM [1, 3]	inhibition at 1 µM ([1]; Human immunodeficiency virus 1, MT4, endogenous RT in culture liquid, 0.001 mM)	inhibition at 5 µM [1, 3]	inhibition at 10 µM [1, 3]	microscopic observation of the morphology of the monolayer (MT-4 cells; [4])	microscopic observation of the morphology of the monolayer (MT-4 cells; [5])	MNC (maximal non-toxic concentration) (MT-4 cells; 72 h)	CC50 at 72 h [2]	inhibition at 0.001 µM ([1]; Human immunodeficiency virus 1, MT4, endogenous RT in culture liquid, 0.000001 mM)	inhibition at 0.01 µM ([1]; Human immunodeficiency virus 1, MT4, endogenous RT in culture liquid, 0.00001 mM)	inhibition of HIV-1 infectivity in MT-4 cells ([1]; Table 4)
O=c1oc2cc(O)c(O)cc2c(O)c1-c1coc2c1c(=O)oc1cc(O)c(O)cc12 [Compound 2, 7,8-dihydroxy-3-(4,6,7-trihydroxy-2-oxo-2H-chromen-3-yl)-4H-furo[3,2-c]chromen-4-one, reference compound]	0%	25.7%	51%	56.3%	some morphology changes	typical cytopathology characterizing toxic effects were not registered	0.01 mM	10 mM			
O=c1oc2cc(O)cc(O)c2c(O)c1-c1coc2c1c(=O)oc1cc(O)cc(O)c12 [Compound 1, 7,9-dihydroxy-3-(4,5,7-trihydroxy-2-oxo-2H-chromene-3-yl)-4H-furo[3,2-c]chromen-4-one]	55%		76.6%	89%	some morphology changes	typical cytopathology characterizing toxic effects were not registered	0.01 mM	10 mM	1.3%	50.7%	> 89%
